# Reference: patent US8153593B2, “Transglutaminase inhibitors and methods of use thereof” (The Board of Trustees of the Leland Stanford Junior …, priority 2003, dated 2012)
# pKi: −log10 of the molar value.
# Target: T1, recombinant human tissue transglutaminase (Homo sapiens, UniProt P21980)
# T1 construct: made in house
# T1 sequence (P21980 1-687): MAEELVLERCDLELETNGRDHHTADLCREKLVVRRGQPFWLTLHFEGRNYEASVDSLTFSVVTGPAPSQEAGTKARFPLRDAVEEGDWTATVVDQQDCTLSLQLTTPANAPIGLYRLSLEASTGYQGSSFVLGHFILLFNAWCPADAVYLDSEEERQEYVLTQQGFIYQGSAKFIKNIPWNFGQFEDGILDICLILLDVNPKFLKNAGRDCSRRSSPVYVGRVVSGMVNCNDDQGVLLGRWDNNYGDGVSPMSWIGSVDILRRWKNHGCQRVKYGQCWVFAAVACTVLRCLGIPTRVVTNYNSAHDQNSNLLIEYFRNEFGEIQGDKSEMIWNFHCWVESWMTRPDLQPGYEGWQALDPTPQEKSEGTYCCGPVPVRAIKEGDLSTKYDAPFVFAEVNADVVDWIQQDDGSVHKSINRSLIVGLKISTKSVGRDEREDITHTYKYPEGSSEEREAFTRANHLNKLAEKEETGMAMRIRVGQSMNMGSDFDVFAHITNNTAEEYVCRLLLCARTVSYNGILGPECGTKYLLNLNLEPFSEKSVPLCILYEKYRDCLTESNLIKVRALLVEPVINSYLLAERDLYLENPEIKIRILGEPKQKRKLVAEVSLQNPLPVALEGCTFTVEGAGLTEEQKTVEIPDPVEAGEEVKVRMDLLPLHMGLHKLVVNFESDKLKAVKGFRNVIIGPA
# Test: tTGase inhibition assay, residual activity by glutamate dehydrogenase coupled assay
# Format: biochemical
# Details: Table 3
pKi,kinh [min⁻¹],kinh/KI,SMILES
5.31,0.1314,26800 /Mmin,"O=C(NC(Cc1c[nH]c2ccc(F)cc12)C(=O)NCC1CC(Br)=NO1)OCc1cnc2ccccc2c1 (stereo not drawn) [ERW1069, [1-[(3-Bromo-4,5-dihydro-isoxazol-5-ylmethyl)-carbamoyl]-2-(5-fluoro-1H-indol-3-yl)-ethyl]-carbamic acid quinolin-3-ylmethyl ester]"
–,–,<1200 >1200 <1200 <1200 /Mmin,"O=C(NC(Cc1c[nH]c2ccc(F)cc12)C(=O)NCC1CC(Br)=NO1)OCc1ccccc1 (stereo not drawn) [ERW903, [1-[(3-Bromo-4,5-dihydro-isoxazol-5-ylmethyl)-carbamoyl]-2-(5-fluoro-1H-indol-3-yl)-ethyl]-carbamic acid benzyl ester]"
3.76,0.283,1600 /Mmin,"COc1ccc2[nH]cc(CC(NC(=O)OCc3cnc4ccccc4c3)C(=O)NCC3CC(Br)=NO3)c2c1 (stereo not drawn) [ERW1041D, [1-[(3-Bromo-4,5-dihydro-isoxazol-5-ylmethyl)-carbamoyl]-2-(5-methoxy-1H-indol-3-yl)-ethyl]-carbamic acid quinolin-3-ylmethyl ester]"
–,–,<1200 /Mmin,"O=C(NCC1CC(Br)=NO1)C1Cc2ccccc2N1C(=O)OCc1ccccc1 (stereo not drawn) [ERW1045, 2-[(3-Bromo-4,5-dihydro-isoxazol-5-ylmethyl)-carbamoyl]-2,3-dihydro-indole-1-carboxylic acid benzyl ester]"
4.20,0.184,2900 /Mmin,"O=C(NC(Cc1ccc(O)cc1)C(=O)NCC1CC(Br)=NO1)OCc1cnc2ccccc2c1 (stereo not drawn) [ERW1041A, [1-[(3-Bromo-4,5-dihydro-isoxazol-5-ylmethyl)-carbamoyl]-2-(4-hydroxy-phenyl)-ethyl]-carbamic acid quinolin-3-ylmethyl ester]"
3.02,2.856,3000 /Mmin,"O=C(NCC1CC(Br)=NO1)[C@@H]1CCCN1C(=O)OCc1cnc2ccccc2c1 (stereo in doubt) [ERW1041E, 2-[(3-Bromo-4,5-dihydro-isoxazol-5-ylmethyl)-carbamoyl]-pyrrolidine-1-carboxylic acid quinolin-3-ylmethyl ester]"
2.86,2.57,1850 /Mmin,"O=C(NC(Cc1c[nH]c2ccc(O)cc12)C(=O)NCC1CC(Br)=NO1)OCc1cnc2ccccc2c1 (stereo not drawn) [ERW1041B, [1-[(3-Bromo-4,5-dihydro-isoxazol-5-ylmethyl)-carbamoyl]-2-(5-hydroxy-1H-indol-3-yl)-ethyl]-carbamic acid quinolin-3-ylmethyl ester]"

# Same assay, conditions: dihydroisoxazoles, Table 1
SMILES,pKi,kinh [min⁻¹],kinh/Ki [min^−1M^−1]
"CC(=O)N[C@@H](Cc1ccccc1)C(=O)NCC1CC(Br)=NO1 (stereo partly drawn) [Compound 54, (S)-2-Acetylamino-N-(3-bromo-4,5-dihydro-isoxazol-5-ylmethyl)-3-phenyl-propionamide]",2.57,0.60,220
"Cc1ccc(C)c(NC(=O)NCC2CC(Br)=NO2)c1 (stereo not drawn) [Compound 64, 1-(3-Bromo-4,5-dihydro-isoxazol-5-ylmethyl)-3-(2,5-dimethyl-phenyl)-urea]",–,0.97,1000
"O=C(NCC1CC(Br)=NO1)Nc1ccc(Cl)cc1C(F)(F)F (stereo not drawn) [Compound 62, 1-(3-Bromo-4,5-dihydro-isoxazol-5-ylmethyl)-3-(4-chloro-2-trifluoromethyl-phenyl)-urea]",–,1.1,850
"O=C(NCC1CC(Br)=NO1)Nc1cc(C(F)(F)F)ccc1Cl (stereo not drawn) [Compound 61, 1-(3-Bromo-4,5-dihydro-isoxazol-5-ylmethyl)-3-(2-chloro-5-trifluoromethyl-phenyl)-urea]",–,0.95,1000
"C[C@H](NC(=O)OCc1ccccc1)C(=O)NCC1CC(Br)=NO1 (stereo partly drawn) [Compound 53, {(S)-1-[(3-Bromo-4,5-dihydro-isoxazol-5-ylmethyl)-carbamoyl]-ethyl}-carbamic acid benzyl ester]",3.04,0.41,450
"O=C(NCC1CC(Br)=NO1)Nc1ccc(F)cc1 (stereo not drawn) [Compound 63, 1-(3-Bromo-4,5-dihydro-isoxazol-5-ylmethyl)-3-(4-fluoro-phenyl)-urea]",–,1.0,770
"O=C(NCC1CC(Br)=NO1)Nc1ccccc1 (stereo not drawn) [Compound 60, 1-(3-Bromo-4,5-dihydro-isoxazol-5-ylmethyl)-3-phenyl-urea]",–,0.89,810

# More lines, now with the values ahead:
pKi,kinh [min⁻¹],kinh/Ki [min^−1M^−1],SMILES
3.06,0.43,490,"COC(=O)[C@H](CC(=O)NCC1CC(Br)=NO1)NC(=O)OCc1ccccc1 (stereo partly drawn) [Compound 51, (S)-2-Benzyloxycarbonylamino-N-(3-bromo-4,5-dihydro-isoxazol-5-ylmethyl)-succinamic acid methyl ester]"
3.62,0.54,2300,"O=C(C[C@H](NC(=O)OCc1ccccc1)C(=O)NCC1CC(Br)=NO1)NCc1ccccc1 (stereo partly drawn) [Compound 56, {(S)-2-Benzylcarbamoyl-1-[(3-bromo-4,5-dihydro-isoxazol-5-ylmethyl)-carbamoyl]-ethyl}-carbamic acid benzyl ester]"
–,0.78,2500,"O=C(N[C@@H](Cc1c[nH]c2ccccc12)C(=O)NCC1CC(Br)=NO1)OCc1ccccc1 (stereo partly drawn) [Compound 57, [(S)-1-[(3-Bromo-4,5-dihydro-isoxazol-5-ylmethyl)-carbamoyl]-2-(1H-indol-3-yl)-ethyl]-carbamic acid benzyl ester]"
3.59,0.19,730,"CN(CC1CC(Br)=NO1)C(=O)[C@H](Cc1ccccc1)NC(=O)OCc1ccccc1 (stereo partly drawn) [Compound 58, {(S)-1-[(3-Bromo-4,5-dihydro-isoxazol-5-ylmethyl)-methyl-carbamoyl]-2-phenyl-ethyl}-carbamic acid benzyl ester]"
2.80,0.32,200,"COC(=O)[C@H](CCC(=O)NCC1CC(Br)=NO1)NC(=O)OCc1ccccc1 (stereo partly drawn) [Compound 50, (S)-2-Benzyloxycarbonylamino-4-[(3-bromo-4,5-dihydro-isoxazol-5-ylmethyl)-carbamoyl]-butyric acid methyl ester]"
2.89,0.32,230,"O=C(N[C@@H](Cc1ccccc1)C(=O)OCC1CC(Br)=NO1)OCc1ccccc1 (stereo partly drawn) [Compound 52, (S)-2-Benzyloxycarbonylamino-3-phenyl-propionic acid 3-bromo-4,5-dihydro-isoxazol-5-ylmethyl ester]"
–,0.29,–,"O=C(N[C@H](Cc1ccccc1)C(=O)NCC1CC(Br)=NO1)OCc1ccccc1 (stereo partly drawn) [Compound 55, {(R)-1-[(3-Bromo-4,5-dihydro-isoxazol-5-ylmethyl)-carbamoyl]-2-phenyl-ethyl}-carbamic acid benzyl ester]"
